Experimental data reported in patent publication US8575359B2, “Acid-sensitive linkers for drug delivery” (The Regents of the University of California, priority 2006, dated 2013).
Read-outs that look alike come from different tables or passages of the source.

System: human ovarian carcinoma 2008 cells
Assay: Cytotoxicity (colony formation assay) on human ovarian carcinoma 2008 cells
Format: cell-based
Protocol: Cells were exposed to various concentrations of 10 for 1 hour and survival was determined after a further […] period of growth in drug-free medium.
Human ovarian carcinoma 2008 cells were plated in 6-well plates at a density of 200 cells in 3 mL of media (RPMI-1640+10% Fetal Bovine Serum) per well and incubated overnight to allow the cells to adhere to the bottom of the wells. After overnight incubation the media was removed from each well and fresh growth media containing different concentrations of 10 was added to the wells. The cells were incubated for 1 hour in the presence of 10. Following the removal of the solutions containing 10, the cells were incubated with fresh media for […] to allow surviving cells to form colonies. […] Clusters containing >50 cells were scored as colonies using an AlphaInontech Imager. The colony formation assay was performed in triplicate on 3 independent occasions.
Chem. Int. Ed. 2004, 43, 739-742. Norrisolide Core (5, 11 μmol) was dissolved in 0.5 mL of dichloromethane (DCM). 4-carboxybenzaldehye (19 μmol), N,N′-dicyclohexylcarbodiimide (DCC, 19 μmol) and Dimethylaminopyridine (DMAP, 1 crystal) was added and stirred overnight at 23° C.

[1] = Table 3, human ovarian carcinoma 2008 cells, read-out: IC50
[2] = human ovarian carcinoma 2008 cells, relative to compound 10

| Compound | IC50 [1] [µM] | other results |
| --- | --- | --- |
| CCOC(c1ccccc1)n1ccnc1 (stereo not drawn) [Compound 1, N-ethoxybenzylimidazole] | 0.01 |  |
| CCOC(c1ccc(Br)cc1)n1ccnc1 (stereo not drawn) [Compound 2] | 9 |  |
| CCOC(c1ccc([N+](=O)[O-])cc1)n1ccnc1 (stereo not drawn) [Compound 3] | 0.1 |  |
| CCCCc1ccc(C(OCC)n2ccnc2)cc1 (stereo not drawn) [Compound 4] | 0.25 |  |
| CCOC(c1ccccc1Br)n1ccnc1 (stereo not drawn) [Compound 5] | 52 |  |
| CCOC(c1ccccc1OC)n1ccnc1 (stereo not drawn) [Compound 6] | 55 |  |
| COc1cccc2c1C(=O)c1c(O)c3c(c(O)c1C2=O)C[C@@](O)(C(=O)CO)C[C@@H]3O[C@H]1C[C@H](NC(=O)c2ccc(C=O)cc2)[C@H](O)[C@H](C)O1 [Compound 10, N-(4-formylbenzoyl)doxorubicin] |  | IC50 (1 hour exposure, colony formation, read-out: IC50 against human ovarian carcinoma 2008 cells): ~12 µM |
| COc1cccc2c1C(=O)c1c(O)c3c(c(O)c1C2=O)C[C@@](O)(C(=O)CO)C[C@@H]3O[C@H]1C[C@H](N)[C@H](O)[C@H](C)O1 [doxorubicin, Doxorubicin, reference compound] |  | IC50 fold lower than that of 10 [2]: > 10 fold |
| N-ethoxybenzylimidazole-doxorubicin Conjugate [Compound 9] |  | IC50 fold higher than that of 10 [2]: 2 fold |
